Data set [1] addresses Trypanothione reductase (Trypanosoma cruzi, UniProt P28593). The experiment in a line: Inhibition of Trypanosoma cruzi trypanothione reductase assessed as reduction of trypanothione disulfide by spectrophotometrically.
Data set [2] relates to Trypanosoma brucei brucei. The experiment in a line: Trypanocidal activity against drug-sensitive Trypanosoma brucei brucei Lab 110 EATRO assessed as inhibition of trypanosomes after 48 hrs. The class given is functional, organism-based.
In data set [3] the test system is Trypanosoma brucei rhodesiense. The experiment in a line: Trypanocidal activity against clinical isolate Trypanosoma brucei rhodesiense KETRI 243 assessed as inhibition of trypanosomes after 48 hrs. The class given is functional, organism-based. The following applies: KETRI 243, 48 h.
Data set [4] relates to Saccharomyces cerevisiae. The experiment in a line: Inhibition of yeast glutathione reductase assessed as reduction of glutathione disulfide up to 250 uM by spectrophotometrically.
Data set [5] deals with Trypanosoma brucei. The experiment in a line: Trypanocidal activity against bloodstream form of Trypanosoma brucei assessed as inhibition of trypanosomes after 48 hrs. The class given is functional, organism-based.
In data set [6] the test system is Trypanosoma brucei rhodesiense. The experiment in a line: Trypanocidal activity against clinical isolate Trypanosoma brucei rhodesiense KETRI 269 assessed as inhibition of trypanosomes after 48 hrs. The following applies: KETRI 269, 48 h. The class given is functional, organism-based.
For data set [7], the system named is Trypanosoma brucei rhodesiense. The experiment in a line: Trypanocidal activity against pentamidine and melarsoprol-resistant Trypanosoma brucei rhodesiense K 243-As-10-3 assessed as inhibition of trypanosomes after 48 hrs. The class given is functional, organism-based. The settings on record: K 243-As-10-3, 48 h.
Data set [8] deals with Trypanosoma brucei brucei. The experiment in a line: In vivo trypanocidal activity against drug-sensitive Trypanosoma brucei brucei Lab 110 EATRO infected in female Swiss-Webster mouse assessed as life prolongation at 50 mg/kg, ip administered in 2 daily doses for 3 days relative to control. The class given is functional, organism-based. Further details: dose 50 mg/kg.
For data set [9], the system named is Mus musculus. The experiment in a line: Toxicity in drug-sensitive Trypanosoma brucei brucei Lab 110 EATRO infected in female Swiss-Webster mouse assessed as death at 50 mg/kg, ip once daily for 3 days relative to control. The class given is organism-based. Further details: dose 50 mg/kg, route intraperitoneal. The settings on record: in vivo, 72 h.
In data set [10] the test system is Trypanosoma brucei brucei. The experiment in a line: In vivo trypanocidal activity against drug-sensitive Trypanosoma brucei brucei Lab 110 EATRO infected in female Swiss-Webster mouse assessed as life prolongation at 1 to 25 mg/kg, ip once daily for 3 days relative to control. The class given is functional, organism-based.
Data set [11] deals with Mus musculus. The experiment in a line: Toxicity in drug-sensitive Trypanosoma brucei brucei Lab 110 EATRO infected in female Swiss-Webster mouse assessed as death at 1 to 25 mg/kg, ip once daily for 3 days relative to control. The class given is organism-based. Details: dose 1-25 mg/kg, route intraperitoneal. The settings on record: in vivo, 72 h.

SMILES strings stand for the structures. Activity calls are given as the source filed them. The calls are words filed in the database; no cut-off is given here.

Chain of Trypanothione reductase (P28593 whole entry): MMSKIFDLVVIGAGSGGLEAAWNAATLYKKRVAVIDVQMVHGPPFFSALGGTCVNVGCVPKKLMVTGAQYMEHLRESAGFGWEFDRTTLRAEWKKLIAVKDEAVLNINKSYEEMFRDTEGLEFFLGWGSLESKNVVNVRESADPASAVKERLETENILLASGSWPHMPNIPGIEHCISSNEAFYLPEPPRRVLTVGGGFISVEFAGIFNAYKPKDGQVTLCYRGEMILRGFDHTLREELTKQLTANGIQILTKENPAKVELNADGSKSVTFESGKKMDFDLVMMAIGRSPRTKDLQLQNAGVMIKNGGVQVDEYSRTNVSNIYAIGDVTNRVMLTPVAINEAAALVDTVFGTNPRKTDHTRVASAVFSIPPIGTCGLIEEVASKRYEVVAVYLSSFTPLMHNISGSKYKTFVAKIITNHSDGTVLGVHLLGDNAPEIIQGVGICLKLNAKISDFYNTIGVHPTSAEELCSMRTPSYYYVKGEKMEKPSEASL

In the case of `CN(C)CCNC1c2ccccc2CCc2ccccc21`, in [1], the Ki was found to be 136 µM. For the same compound, the IC50 in [2] came to 1.68 µM; in [3], 2 µM. Moreover, the inhibition result in [4] is “inactive”.

As for `CN(C)CCCN1c2ccccc2CCc2ccc(Cl)cc21` [CLOMIPRAMINE], the EC50 in [5] was 5.05 µM. Further, in data set [4], the inhibition entry is “inactive”.

As for `NCCN(CCN)C1c2ccccc2CCc2ccccc21`, the Ki in data set [1] is 27.9 µM. The IC50 in [2] was 2.8 µM. Besides, the inhibition entry in data set [4] was “inactive”.

`NCCCN(CCCCN(CCCN)C1c2ccccc2CCc2ccccc21)C1c2ccccc2CCc2ccccc21`: in [1], the Ki is 0.255 µM. Besides, the IC50 in data set [2] came to 2.55 µM; in data set [3], 1.5 µM; in data set [6], 1.69 µM; in data set [7] it was 22 µM. Also, in data set [8], the result was Active. The Activity result in [9] was “Toxic”. In addition, the inhibition entry in [4] was “inactive”.

Take `NCCCCN(CCCN)C1c2ccccc2CCc2ccccc21`: the Ki in [1] was 4 µM. The IC50 was 0.62 µM in data set [2], 4.5 µM in [3], 4.3 µM in data set [6] and 8.3 µM in data set [7]. In data set [10], the result was inactive. Further, the Activity result in data set [11] was “Toxic”. Moreover, the inhibition entry in [4] was “inactive”.

For `CN(C)CCCNC1c2ccccc2CCc2ccccc21`, the Ki in data set [1] turned out to be 81.6 µM. Also, the IC50 in data set [2] was determined as 1.38 µM. In addition, the inhibition result in data set [4] was “inactive”.

On to `NCCCN(CCCN)C1c2ccccc2CCc2ccccc21`, for which the Ki in data set [1] was found to be 7.62 µM. The inhibition entry in [4] was “inactive”.

(Values after ChEMBL document CHEMBL3396948 (Bioorg Med Chem, 2015).)
